Where two headings read alike, the source gives them in different places.

Experiment [1] has as its target T1, Drosophila OR47a (Drosophila melanogaster, UniProt P81921).
T1 construct: expressed in transfected cells
T1 sequence (P81921 1-385): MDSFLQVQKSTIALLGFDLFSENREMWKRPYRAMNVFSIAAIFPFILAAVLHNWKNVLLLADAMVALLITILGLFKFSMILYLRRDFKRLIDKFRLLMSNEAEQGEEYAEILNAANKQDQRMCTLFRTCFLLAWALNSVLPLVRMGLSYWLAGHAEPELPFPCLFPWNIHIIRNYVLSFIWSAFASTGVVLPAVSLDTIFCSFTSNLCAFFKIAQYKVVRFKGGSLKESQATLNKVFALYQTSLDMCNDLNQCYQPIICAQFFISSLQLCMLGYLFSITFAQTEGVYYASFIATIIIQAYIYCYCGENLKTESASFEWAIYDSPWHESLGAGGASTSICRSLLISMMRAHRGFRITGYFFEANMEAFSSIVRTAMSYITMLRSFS
T1 sequence (Q9VNB5 1-486 partner): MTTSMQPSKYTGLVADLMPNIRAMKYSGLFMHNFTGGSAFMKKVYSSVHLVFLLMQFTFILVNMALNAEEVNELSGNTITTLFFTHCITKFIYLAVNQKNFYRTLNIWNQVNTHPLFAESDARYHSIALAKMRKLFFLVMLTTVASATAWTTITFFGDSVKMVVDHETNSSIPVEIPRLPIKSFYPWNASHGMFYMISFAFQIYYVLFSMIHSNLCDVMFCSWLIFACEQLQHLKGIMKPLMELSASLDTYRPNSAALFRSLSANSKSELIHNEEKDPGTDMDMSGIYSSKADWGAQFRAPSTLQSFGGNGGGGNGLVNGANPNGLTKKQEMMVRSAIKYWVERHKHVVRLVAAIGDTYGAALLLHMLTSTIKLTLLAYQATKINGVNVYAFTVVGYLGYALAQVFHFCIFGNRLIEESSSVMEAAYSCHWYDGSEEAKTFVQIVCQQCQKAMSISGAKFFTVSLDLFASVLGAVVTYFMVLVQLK
Briefly: Calcium ion fluorescence (GCaMP6) assay, OR47a stable HEK293 cell line. It counts as cell-based. The following applies: for Average response: mean of biological replicates. In short, it runs like this:
(§1)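 Responses are VUAA1-normalized ΔF: each VOC-evoked calcium signal, (FMAX−F0)/F0 over 30 s after injection, divided by the same line's mean 50 µM VUAA1 response. Cells were doxycycline-induced HEK293 with GCaMP6 and the cognate Drosophila OR, in HEPES buffer pH 7.3; ligands tested 0.01–100 μM.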

For experiment [2], the target named is T2, Drosophila OR10a (Drosophila melanogaster, UniProt Q9VYZ1).
T2 construct: expressed in transfected cells
T2 sequence (Q9VYZ1 1-406): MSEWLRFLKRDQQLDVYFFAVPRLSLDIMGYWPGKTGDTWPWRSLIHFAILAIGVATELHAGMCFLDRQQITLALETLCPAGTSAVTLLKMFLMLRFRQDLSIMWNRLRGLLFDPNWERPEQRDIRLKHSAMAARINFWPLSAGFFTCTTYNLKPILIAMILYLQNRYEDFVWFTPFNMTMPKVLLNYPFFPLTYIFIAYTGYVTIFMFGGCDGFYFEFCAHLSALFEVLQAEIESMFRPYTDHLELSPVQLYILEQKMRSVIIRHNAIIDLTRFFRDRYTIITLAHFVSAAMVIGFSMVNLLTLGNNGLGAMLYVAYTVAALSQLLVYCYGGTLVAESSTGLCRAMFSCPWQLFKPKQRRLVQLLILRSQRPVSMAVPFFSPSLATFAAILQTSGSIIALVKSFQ
T2 sequence (Q9VNB5 1-486 partner): T1 sequence (Q9VNB5 1-486 partner)
Put plainly: Calcium ion fluorescence (GCaMP6) assay, OR10a stable HEK293 cell line. It counts as cell-based. Put shortly: as §1

[3] abbreviates: OR47a cell line, odorant cc. 1 µM.
Setting [4] is: OR47a cell line, odorant cc. 10 µM.
The mark [5] stands for this setting: OR47a cell line, odorant cc. 100 µM.
Where [6] appears, read: ligand concentration 1 (unit not given), threshold 0.05, below shown as 0.
Setting [7] is: ligand concentration 10 (unit not given), threshold 0.05, below shown as 0.
The mark [8] stands for this setting: ligand concentration 100 (unit not given), threshold 0.05, below shown as 0.
[9] abbreviates: HEK293, read-out: OR47a Average response (VUAA1-normalized).
Where [10] appears, read: HEK293, read-out: OR47a response (VUAA1-normalized response).
Setting [11] is: ligand concentration 1 (unit not given), 0.05 threshold, values below shown as 0.
Setting [12] is: ligand concentration 10 (unit not given), 0.05 threshold, values below shown as 0.
The mark [13] stands for this setting: ligand concentration 100 (unit not given), 0.05 threshold, values below shown as 0.

Regarding `C=C(C)[C@H]1CC=C(C)CC1` [limonene], the Average response worked out at 0.0214 in experiment [1] (setting [3]), 0.00 in experiment [1] (setting [4]) and 0.00 in experiment [1] (setting [5]). The “OR47a response (VUAA1-normalized response)” value in experiment [1] (VOC concentration 1 μM), in experiment [1] (VOC concentration 10 μM) and in experiment [1] (VOC concentration 100 μM) was 0.00 each time. Besides, the “DF norm AVERAGE OR47a” value in experiment [1] (setting [6]), in experiment [1] (setting [7]) and in experiment [1] (setting [8]) was 0 each time. For the same compound, the “OR10a Average response (VUAA1-normalized)” value in experiment [2] (1 μM VOC, 50 μM VUAA1 = 1, responses not exceeding 0.05 considered 0) was found to be 0.00; in experiment [2] (10 μM VOC, 50 μM VUAA1 = 1, responses not exceeding 0.05 considered 0), 0.00; in experiment [2] (100 μM VOC, 50 μM VUAA1 = 1, responses not exceeding 0.05 considered 0) it was 0.06. Further, the “OR10a response (VUAA1-normalized response)” value was 0.00 in experiment [2] (VOC concentration 1 μM), 0.00 in experiment [2] (VOC concentration 10 μM) and 0.06 in experiment [2] (VOC concentration 100 μM). Further, the “DF norm AVERAGE OR10a” value is on record as 0 in experiment [2] (setting [6]), 0 in experiment [2] (setting [7]) and 0.05729 in experiment [2] (setting [8]).
In the case of `CC(=O)OCC(C)C` [isobutyl acetate], the activation at 1 µM in experiment [1] (setting [9]) was 19%; in experiment [1] (setting [10]), 19%; in experiment [2] (HEK293, read-out: OR10a Average response (VUAA1-normalized), 1 μM VOC, 50 μM VUAA1 = 1, responses not exceeding 0.05 considered 0), 7%; in experiment [2] (HEK293, read-out: OR10a response (VUAA1-normalized response), VOC concentration 1 μM), 6.57%. For the same compound, the activation at 10 µM came out at 15% in experiment [1] (setting [9]); 15% in experiment [1] (setting [10]); 5% in experiment [2] (HEK293, read-out: OR10a Average response (VUAA1-normalized), 10 μM VOC, 50 μM VUAA1 = 1, responses not exceeding 0.05 considered 0); 0% in experiment [2] (HEK293, read-out: OR10a response (VUAA1-normalized response), VOC concentration 10 μM). Also, the activation at 100 µM came to 65% in experiment [1] (setting [9]); 65% in experiment [1] (setting [10]); 18% in experiment [2] (HEK293, read-out: OR10a Average response (VUAA1-normalized), 100 μM VOC, 50 μM VUAA1 = 1, responses not exceeding 0.05 considered 0); 18% in experiment [2] (HEK293, read-out: OR10a response (VUAA1-normalized response), VOC concentration 100 μM). Moreover, the Average response in experiment [1] (setting [3]) worked out at 0.19; in experiment [1] (setting [4]), 0.15; in experiment [1] (setting [5]) it was 0.65. For the same compound, the “DF norm AVERAGE OR47a” value is given as 0.1884 in experiment [1] (setting [6]), 0.1518 in experiment [1] (setting [7]) and 0.646 in experiment [1] (setting [8]). The results for the “DF norm AVERAGE OR10a” value in experiment [2] (setting [6]), in experiment [2] (setting [7]) and in experiment [2] (setting [8]) were 0.06574, 0 and 0.1821, respectively.
Regarding `CCCCCCCCCCC` [undecane], the “OR47a response (VUAA1-normalized) at 1 μM” value in experiment [1] (OR47a cell line, VOC concentration 1 μM) is 0.00. Also, the “OR47a response (VUAA1-normalized) at 10 μM” value in experiment [1] (OR47a cell line, VOC concentration 10 μM) is reported as 0.00. Moreover, the “OR47a response (VUAA1-normalized) at 100 μM” value in experiment [1] (OR47a cell line, VOC concentration 100 μM) is 0.00. In addition, the Average response in experiment [1] (setting [3]), in experiment [1] (setting [4]) and in experiment [1] (setting [5]) was 0.00 throughout. Also, the “DF norm AVERAGE OR47a” value in experiment [1] (setting [11]), in experiment [1] (setting [12]) and in experiment [1] (setting [13]) was 0 each time. Moreover, in experiment [2] (HEK293, 1 μM VOC, 50 μM VUAA1 = 1, responses not exceeding 0.05 considered 0, read-out: OR10a Average response (VUAA1-normalized)), the activation at 1 µM was 0%. The activation at 10 µM in experiment [2] (HEK293, 10 μM VOC, 50 μM VUAA1 = 1, responses not exceeding 0.05 considered 0, read-out: OR10a Average response (VUAA1-normalized)) worked out at 0%. In addition, in experiment [2] (HEK293, 100 μM VOC, 50 μM VUAA1 = 1, responses not exceeding 0.05 considered 0, read-out: OR10a Average response (VUAA1-normalized)), the activation at 100 µM amounted to 0%. In experiment [2] (OR10a cell line, VOC concentration 1 μM), the “OR10a response (VUAA1-normalized) at 1 μM” value was found to be 0.00. Further, the “OR10a response (VUAA1-normalized) at 10 μM” value in experiment [2] (OR10a cell line, VOC concentration 10 μM) was 0.00. For the same compound, the “OR10a response (VUAA1-normalized) at 100 μM” value in experiment [2] (OR10a cell line, VOC concentration 100 μM) stood at 0.00. Moreover, the “DF norm AVERAGE OR10a” value in experiment [2] (setting [11]), in experiment [2] (setting [12]) and in experiment [2] (setting [13]) was 0 each time.

Values taken from PMC10709440, “High-throughput ligand profile characterization in novel cell lines expressing seven heterologous insect olfactory receptors for the detection of volatile plant biomarkers” (Scientific Reports, 2023).
